Laboratory results as given in the supplement of paper PMC10307832.

Experiments:
Experiment in all cases: relative viability (nuclei count vs DMSO), 5 days (fraction); higher = more cells survive
[1] = test system: NCI-H647
In short: (§1)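 Lung cancer cell lines in 1536-well plates were dosed by pin tool the day after seeding, either with one drug alone or with a fixed anchor-drug dose plus five library-drug doses (not always all listed) in √10 steps. After 5 days, cells were fixed and their nuclei stained in one step (final 0.05% Triton X-100, 1% formaldehyde, 1 ug/ml Hoechst), then counted on 4× images. Relative viability is the nuclei count in treated wells divided by that in vehicle wells. Values are medians of duplicate plates.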

[2] = test system: NCI-H1437
In short: as §1

[3] = test system: HCC-15
In short: as §1

[4] = test system: NCI-H1651
In short: as §1

[5] = test system: HCC-827
In short: as §1

[6] = test system: UMC-11
In short: as §1

[7] = test system: 201T
In short: as §1

[8] = test system: EPLC-272H
In short: as §1

[9] = test system: COR-L 105
In short: as §1

[10] = test system: NCI-H727
In short: as §1

[11] = test system: NCI-H2087
In short: as §1

[12] = test system: H3255
In short: as §1

[13] = test system: COR-L23
In short: as §1

[14] = test system: NCI-H1792
In short: as §1

[15] = test system: NCI-H1975
In short: as §1

[16] = test system: EKVX
In short: as §1

[17] = test system: NCI-H358
In short: as §1

[18] = test system: NCI-H1650
In short: as §1

[19] = test system: HCC-44
In short: as §1

[20] = test system: ABC-1
In short: as §1

[21] = test system: NCI-H520
In short: as §1

[22] = test system: LCLC-103H
In short: as §1

[23] = test system: NCI-H661
In short: as §1

`O=C(O)CCCCC(CCSCc1ccccc1)SCc1ccccc1` (centres undefined) [CPI-613] + CC(=O)c1c(C)c2cnc(Nc3ccc(N4CCNCC4)cn3)nc2n(C2CCCC2)c1=O [Palbociclib] (partner 0.5 µM) was tested. Which relative viability ([1]; first compound 5 µM) did it give?
The relative viability was 0.341.

What about the relative viability ([1]; first compound 15.81 µM) of the same compound?
The relative viability was 0.312.

And the relative viability ([1]; first compound 50 µM)?
The relative viability was 0.316.

And the relative viability ([1]; first compound 158.11 µM)?
Its relative viability is 0.022.

And the relative viability ([1]; first compound 500 µM)?
Its relative viability is 0.0072.

And the relative viability ([2]; first compound 5 µM)?
The relative viability was 0.284.

And the relative viability ([2]; first compound 15.81 µM)?
The relative viability was 0.281.

And the relative viability ([2]; first compound 50 µM)?
Its relative viability is 0.292.

What about the relative viability ([2]; first compound 158.11 µM) of the same compound?
Its relative viability is 0.0875.

And the relative viability ([2]; first compound 500 µM)?
The relative viability was 0.026.

What about the relative viability ([3]; first compound 5 µM) of the same compound?
The relative viability was 0.649.

What about the relative viability ([3]; first compound 15.81 µM) of the same compound?
Its relative viability is 0.694.

What about the relative viability ([3]; first compound 50 µM) of the same compound?
Its relative viability is 0.681.

What about the relative viability ([3]; first compound 158.11 µM) of the same compound?
Its relative viability is 0.332.

And the relative viability ([3]; first compound 500 µM)?
Its relative viability is 0.126.

What about the relative viability ([4]; first compound 5 µM) of the same compound?
Its relative viability is 0.51.

What about the relative viability ([4]; first compound 15.81 µM) of the same compound?
Its relative viability is 0.466.

And the relative viability ([4]; first compound 50 µM)?
Its relative viability is 0.487.

And the relative viability ([4]; first compound 158.11 µM)?
The relative viability was 0.46.

And the relative viability ([4]; first compound 500 µM)?
Its relative viability is 0.514.

And the relative viability ([5]; first compound 5 µM)?
Its relative viability is 0.465.

And the relative viability ([5]; first compound 15.81 µM)?
The relative viability was 0.491.

What about the relative viability ([5]; first compound 50 µM) of the same compound?
The relative viability was 0.464.

And the relative viability ([5]; first compound 158.11 µM)?
Its relative viability is 0.496.

What about the relative viability ([5]; first compound 500 µM) of the same compound?
The relative viability was 0.417.

What about the relative viability ([6]; first compound 5 µM) of the same compound?
Its relative viability is 0.346.

What about the relative viability ([6]; first compound 15.81 µM) of the same compound?
Its relative viability is 0.354.

What about the relative viability ([6]; first compound 50 µM) of the same compound?
The relative viability was 0.323.

And the relative viability ([6]; first compound 158.11 µM)?
Its relative viability is 0.23.

And the relative viability ([6]; first compound 500 µM)?
The relative viability was 0.216.

What about the relative viability ([7]; first compound 5 µM) of the same compound?
The relative viability was 0.341.

And the relative viability ([7]; first compound 15.81 µM)?
The relative viability was 0.34.

And the relative viability ([7]; first compound 50 µM)?
Its relative viability is 0.353.

And the relative viability ([7]; first compound 158.11 µM)?
Its relative viability is 0.185.

And the relative viability ([7]; first compound 500 µM)?
Its relative viability is 0.204.

What about the relative viability ([8]; first compound 5 µM) of the same compound?
Its relative viability is 0.348.

What about the relative viability ([8]; first compound 15.81 µM) of the same compound?
Its relative viability is 0.315.

What about the relative viability ([8]; first compound 50 µM) of the same compound?
The relative viability was 0.306.

And the relative viability ([8]; first compound 158.11 µM)?
Its relative viability is 0.316.

What about the relative viability ([8]; first compound 500 µM) of the same compound?
Its relative viability is 0.259.

And the relative viability ([9]; first compound 5 µM)?
Its relative viability is 0.423.

And the relative viability ([9]; first compound 15.81 µM)?
Its relative viability is 0.441.

What about the relative viability ([9]; first compound 50 µM) of the same compound?
The relative viability was 0.379.

And the relative viability ([9]; first compound 158.11 µM)?
The relative viability was 0.294.

What about the relative viability ([9]; first compound 500 µM) of the same compound?
The relative viability was 0.26.

And the relative viability ([10]; first compound 5 µM)?
The relative viability was 0.673.

What about the relative viability ([10]; first compound 15.81 µM) of the same compound?
Its relative viability is 0.614.

What about the relative viability ([10]; first compound 50 µM) of the same compound?
The relative viability was 0.566.

What about the relative viability ([10]; first compound 158.11 µM) of the same compound?
The relative viability was 0.655.

And the relative viability ([10]; first compound 500 µM)?
The relative viability was 0.634.

And the relative viability ([11]; first compound 5 µM)?
The relative viability was 0.253.

What about the relative viability ([11]; first compound 15.81 µM) of the same compound?
The relative viability was 0.197.

What about the relative viability ([11]; first compound 50 µM) of the same compound?
Its relative viability is 0.19.

What about the relative viability ([11]; first compound 158.11 µM) of the same compound?
The relative viability was 0.0923.

What about the relative viability ([11]; first compound 500 µM) of the same compound?
Its relative viability is 0.0098.

What about the relative viability ([12]; first compound 5 µM) of the same compound?
Its relative viability is 0.296.

And the relative viability ([12]; first compound 15.81 µM)?
The relative viability was 0.302.

And the relative viability ([12]; first compound 50 µM)?
Its relative viability is 0.339.

What about the relative viability ([12]; first compound 158.11 µM) of the same compound?
The relative viability was 0.328.

And the relative viability ([12]; first compound 500 µM)?
Its relative viability is 0.302.

And the relative viability ([13]; first compound 5 µM)?
Its relative viability is 0.285.

What about the relative viability ([13]; first compound 15.81 µM) of the same compound?
The relative viability was 0.321.

What about the relative viability ([13]; first compound 50 µM) of the same compound?
Its relative viability is 0.324.

What about the relative viability ([13]; first compound 158.11 µM) of the same compound?
Its relative viability is 0.11.

What about the relative viability ([13]; first compound 500 µM) of the same compound?
The relative viability was 0.0343.

What about the relative viability ([14]; first compound 5 µM) of the same compound?
The relative viability was 0.627.

What about the relative viability ([14]; first compound 15.81 µM) of the same compound?
The relative viability was 0.607.

And the relative viability ([14]; first compound 50 µM)?
The relative viability was 0.654.

What about the relative viability ([14]; first compound 158.11 µM) of the same compound?
Its relative viability is 0.632.

And the relative viability ([14]; first compound 500 µM)?
The relative viability was 0.666.

And the relative viability ([15]; first compound 5 µM)?
Its relative viability is 0.638.

And the relative viability ([15]; first compound 15.81 µM)?
Its relative viability is 0.645.

And the relative viability ([15]; first compound 50 µM)?
Its relative viability is 0.388.

And the relative viability ([15]; first compound 158.11 µM)?
The relative viability was 0.562.

What about the relative viability ([15]; first compound 500 µM) of the same compound?
The relative viability was 0.0655.

And the relative viability ([16]; first compound 5 µM)?
Its relative viability is 0.372.

And the relative viability ([16]; first compound 15.81 µM)?
The relative viability was 0.449.

What about the relative viability ([16]; first compound 50 µM) of the same compound?
The relative viability was 0.404.

And the relative viability ([16]; first compound 500 µM)?
Its relative viability is 0.378.

What about the relative viability ([17]; first compound 5 µM) of the same compound?
The relative viability was 0.114.

And the relative viability ([17]; first compound 15.81 µM)?
Its relative viability is 0.134.

What about the relative viability ([17]; first compound 50 µM) of the same compound?
Its relative viability is 0.154.

What about the relative viability ([17]; first compound 158.11 µM) of the same compound?
The relative viability was 0.0757.

And the relative viability ([17]; first compound 500 µM)?
The relative viability was 0.0449.

And the relative viability ([18]; first compound 5 µM)?
The relative viability was 0.326.

And the relative viability ([18]; first compound 15.81 µM)?
The relative viability was 0.276.

What about the relative viability ([18]; first compound 50 µM) of the same compound?
Its relative viability is 0.317.

And the relative viability ([18]; first compound 158.11 µM)?
The relative viability was 0.0807.

And the relative viability ([18]; first compound 500 µM)?
Its relative viability is 0.0173.

And the relative viability ([19]; first compound 5 µM)?
The relative viability was 0.959.

And the relative viability ([19]; first compound 15.81 µM)?
Its relative viability is 0.954.

And the relative viability ([19]; first compound 50 µM)?
The relative viability was 1.04.

What about the relative viability ([19]; first compound 158.11 µM) of the same compound?
The relative viability was 0.6.

What about the relative viability ([19]; first compound 500 µM) of the same compound?
Its relative viability is 0.606.

And the relative viability ([20]; first compound 5 µM)?
The relative viability was 0.603.

What about the relative viability ([20]; first compound 15.81 µM) of the same compound?
The relative viability was 0.669.

What about the relative viability ([20]; first compound 50 µM) of the same compound?
The relative viability was 0.639.

What about the relative viability ([20]; first compound 158.11 µM) of the same compound?
Its relative viability is 0.415.

And the relative viability ([20]; first compound 500 µM)?
The relative viability was 0.4.

And the relative viability ([21]; first compound 5 µM)?
The relative viability was 0.225.

And the relative viability ([21]; first compound 15.81 µM)?
Its relative viability is 0.2.

What about the relative viability ([21]; first compound 50 µM) of the same compound?
The relative viability was 0.169.

What about the relative viability ([21]; first compound 158.11 µM) of the same compound?
The relative viability was 0.119.

And the relative viability ([21]; first compound 500 µM)?
The relative viability was 0.117.

And the relative viability ([22]; first compound 5 µM)?
Its relative viability is 0.464.

And the relative viability ([22]; first compound 15.81 µM)?
Its relative viability is 0.456.

And the relative viability ([22]; first compound 50 µM)?
The relative viability was 0.455.

And the relative viability ([22]; first compound 158.11 µM)?
Its relative viability is 0.343.

What about the relative viability ([22]; first compound 500 µM) of the same compound?
The relative viability was 0.213.

And the relative viability ([23]; first compound 5 µM)?
Its relative viability is 0.404.

And the relative viability ([23]; first compound 15.81 µM)?
The relative viability was 0.374.

What about the relative viability ([23]; first compound 50 µM) of the same compound?
The relative viability was 0.387.

And the relative viability ([23]; first compound 158.11 µM)?
The relative viability was 0.24.

What about the relative viability ([23]; first compound 500 µM) of the same compound?
The relative viability was 0.132.
